One experiment relates to POMC neurons. Kind of experiment: Whole cell recordings from fluorescent POMC-EGFP neurons in ARC slices (Example 2). It counts as cell-based, mouse.
Experiment [1] can be described thus: 1-hour food intake after IP GLP-1 with intra-arcuate exendin 9-39 in non-fasted rats. Format: in vivo, rat. Particulars: GLP-1 25 nmol/kg, exendin 9-39 20 nmoles/kg, FIG. 11. Here is the method:
GLP-1 i.e. GLP-1 (7-36) amide (25 nmol/kg) or saline (control) was administered parenterally to non-fasted rats prior to the onset of the dark phase. Exendin 9-39 (20 nmoles/kg) or saline (control) injected into the arcuate nucleus of non-fasted rats. Food intake one hour later was measured.

A short description of experiment [2]: Intracerebroventricular GLP-1 in rats. It counts as in vivo, rat. From the text:
This effect is blocked by the specific GLP-1 receptor antagonist, exendin 9-39. GLP-1 receptors are found in the brainstem, arcuate nucleus and PVN. Following ICV GLP-1 administration, c-fos is expressed in the arcuate nucleus and PVN.

Experiment [3] is described as follows: Co-administration of PYY3-36 and GLP-1 by intravenous infusion in humans, free buffet meal. It counts as in vivo, human. From the text:
10 healthy volunteers (4 men and 6 women) having a mean age of 24.7 (±0.8) years and a mean BMI of 22.7 (±0.6) kg/m^2 were recruited. The volunteers were asked to fast and to drink only water from 9 pm on the night preceding all study days. Each volunteer attended for four study days. The volunteers arrived at 9.30 am and the venflons were inserted.
The study was double blinded. GLP-1 is i.e. GLP-1 (7-36) amide

The subject of experiment [4] is non-fluorescent ARC neurons. Kind of experiment: Recordings from adjacent non-fluorescent ARC neurons. It counts as cell-based, mouse. Particulars: 13 cells tested.

We go through seven substances from patent publication US8058233B2, “Modification of feeding behavior using PYY and GLP-1” (Oregon Health and Science University, priority 2002, dated 2011).

No end group written: not given here.

As for neuropeptide Y [NPY], the “hyperpolarization of POMC neurons, average” value with POMC neurons (n=3) worked out at 9±6 mV.

For met-enkephalin, the “time to hyperpolarization of POMC cells” value in the experiment on POMC neurons (30 μM) lay in the range of 35 to 40 s. The “hyperpolarization of the membrane potential of POMC cells” value with POMC neurons (30 μM, n=10, reversible) is recorded as 10-20 mV.

Turning to “GLP-1 (7-36) amide (HAEGTFTSDVSSYLEGGAAKEFIAWLVKGR-NH2)”, in experiment [1], the “effect of IP GLP-1 on 1-hour food intake with exendin 9-39 in the arcuate nucleus” value was “not influenced by the presence of concomitant exendin 9-39”. Moreover, the “food intake after ICV administration” value in experiment [2] is listed as “potently inhibits food intake”. Moreover, in experiment [3] (IV infusion 0.4 pmol/kg/min for 120 minutes (90 minutes pre-meal), 10 volunteers, saline 997), the “Food intake from free buffet meal, mean” value was determined as 950 kcal. Further, in experiment [3] (IV infusion 0.4 pmol/kg/min for 120 minutes, free buffet meal), the “% reduction from saline” value is reported as 5%.

As to CTAP, in the experiment on POMC neurons (CTAP 1 μM, Met-Enk 30 μM, n=3), the “effect on the current induced by Met-Enk in POMC cells” value is “completely prevented”.

For exendin 9-39, the “effect on inhibition of food intake by ICV GLP-1” value in experiment [2] is recorded as “blocked”.

With D-Trp^8-γMSH, in the experiment with POMC neurons (7 nM, 3 of 4 POMC neurons), the “increase in frequency of GABAergic IPSCs in POMC neurons” value was 280±90%. Further, the “hyperpolarization of POMC neurons” value in the experiment on POMC neurons (7 nM, 9 of 15 POMC neurons) is reported as −5.5±2.4 mV.

As to “leptin: leptin, hormone applied to POMC cells in slice preparations”, the “decrease in frequency of GABAergic IPSCs in POMC cells” value in the experiment on POMC neurons (100 nM, in 5 out of 15 cells) stood at 25%. Also, the “depolarization of POMC cells, mean±SEM” value in the experiment on POMC neurons (100 nM, n=45) stood at 9.7±1.2 mV. In the experiment with POMC neurons (0.1-100 nM), the “time to depolarization of POMC cells” value was 2 to 10 min. Further, in the experiment with POMC neurons (0.1-100 nM, 72 of 77 POMC cells), the “depolarization of POMC cells” value was 3-30 mV. Also, the “effect on membrane potential of non-fluorescent ARC cells” value in experiment [4] is “had no effect on 5 of 13 adjacent non-fluorescent cells tested (FIG. 3e), while it hyperpolarized 5 (FIG. 3f) and depolarized 3 other non-POMC neurons”.
